pIC50: −log10 of the molar value.
Legend:
[1] = Inhibition of intestinal glucosidase in Swiss mouse intestinal extracts; conditions: for pIC50: read-out: IC50
[2] = Inhibition of pancreatic glucosidase in Swiss mouse pancreatic extracts
[3] = molecular target: T1, Pancreatic alpha-amylase (Sus scrofa, UniProt P00690); assay: Inhibition of porcine pancreatic alpha amylase using starch as substrate by Bernfeld method
T1 sequence (P00690 whole entry): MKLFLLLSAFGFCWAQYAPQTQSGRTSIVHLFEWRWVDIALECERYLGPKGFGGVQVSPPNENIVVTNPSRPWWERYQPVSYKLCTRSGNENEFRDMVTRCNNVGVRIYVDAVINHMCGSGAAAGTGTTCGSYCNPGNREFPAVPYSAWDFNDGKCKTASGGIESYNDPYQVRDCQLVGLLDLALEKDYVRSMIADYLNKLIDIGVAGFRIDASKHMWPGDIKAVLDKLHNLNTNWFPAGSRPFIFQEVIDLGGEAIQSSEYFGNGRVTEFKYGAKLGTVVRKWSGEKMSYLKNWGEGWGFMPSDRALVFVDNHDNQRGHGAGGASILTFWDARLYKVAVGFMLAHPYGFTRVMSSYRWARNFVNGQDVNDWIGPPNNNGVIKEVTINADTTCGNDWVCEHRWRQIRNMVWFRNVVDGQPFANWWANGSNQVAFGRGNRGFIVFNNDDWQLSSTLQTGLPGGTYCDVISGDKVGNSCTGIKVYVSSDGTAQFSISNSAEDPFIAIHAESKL

[4] = molecular target: Lysosomal alpha-glucosidase (Mus musculus, UniProt P70699); assay: Inhibition of liver glucosidase in Swiss mouse liver extracts
Chain of Lysosomal alpha-glucosidase (P70699 whole entry): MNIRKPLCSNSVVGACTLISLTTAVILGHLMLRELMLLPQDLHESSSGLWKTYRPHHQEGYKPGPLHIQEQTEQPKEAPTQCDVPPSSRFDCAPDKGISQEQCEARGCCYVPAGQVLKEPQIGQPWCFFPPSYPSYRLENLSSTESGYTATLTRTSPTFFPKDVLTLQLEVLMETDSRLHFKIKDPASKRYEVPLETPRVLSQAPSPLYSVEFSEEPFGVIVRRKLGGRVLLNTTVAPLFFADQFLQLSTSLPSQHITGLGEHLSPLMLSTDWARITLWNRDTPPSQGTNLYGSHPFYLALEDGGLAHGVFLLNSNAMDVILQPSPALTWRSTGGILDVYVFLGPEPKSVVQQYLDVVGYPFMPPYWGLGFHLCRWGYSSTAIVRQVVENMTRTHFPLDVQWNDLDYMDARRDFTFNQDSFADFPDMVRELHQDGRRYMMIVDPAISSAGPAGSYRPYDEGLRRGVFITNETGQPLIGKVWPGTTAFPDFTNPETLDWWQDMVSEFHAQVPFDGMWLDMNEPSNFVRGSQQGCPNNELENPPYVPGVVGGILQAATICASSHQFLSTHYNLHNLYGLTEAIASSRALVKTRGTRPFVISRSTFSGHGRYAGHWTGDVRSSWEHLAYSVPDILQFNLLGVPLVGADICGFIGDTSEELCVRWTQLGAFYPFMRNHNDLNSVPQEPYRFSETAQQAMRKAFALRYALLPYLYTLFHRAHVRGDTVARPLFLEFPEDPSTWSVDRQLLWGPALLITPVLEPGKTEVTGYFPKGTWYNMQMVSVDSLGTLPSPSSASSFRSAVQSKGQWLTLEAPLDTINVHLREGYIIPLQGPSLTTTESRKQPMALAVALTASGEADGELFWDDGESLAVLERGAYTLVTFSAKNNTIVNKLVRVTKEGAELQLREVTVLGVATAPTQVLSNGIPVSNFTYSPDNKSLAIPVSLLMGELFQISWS

Row | pIC50 [2] | pIC50 [3] | pIC50 [4] | pIC50 [1] | SMILES | IC50 [1]
1 | 4.67 | 4.64 | 4.63 | 4.49 | N#C/C=C1\C=C(c2ccccc2)N=C2Sc3ccccc3N21 | 
2 | 4.76 | 4.66 | 4.66 | 4.75 | N#C/C=C1\C=C(c2ccc(Cl)cc2)N=C2Sc3ccccc3N21 | 
3 | 4.76 | 4.61 | 4.60 | 4.43 | N#C/C=C1\C=C(c2ccc(F)cc2)N=C2Sc3ccccc3N21 | 
4 | 4.72 | 4.69 | 4.68 | 4.52 | COc1ccc2c(c1)SC1=NC(c3ccc(F)cc3)=C/C(=C\C#N)N12 | 
5 | 4.64 | 4.70 | 4.67 | 4.65 | N#C/C=C1\C=C(c2ccc3ccccc3c2)N=C2Sc3ccccc3N21 | 
6 | 4.52 | 4.73 | 4.80 | 4.20 | COc1ccc2c(c1)SC1=NC(c3ccc4ccccc4c3)=C/C(=C\C#N)N12 | 
7 | 4.68 | 4.69 | 4.71 | 4.59 | COc1ccc2c(c1)SC1=NC(c3ccc(Cl)cc3)=C/C(=C\C#N)N12 | 
8 | 4.46 | 4.63 | 4.69 | 4.44 | Cc1ccc(C2=C/C(=C\C#N)N3C(=N2)Sc2ccccc23)cc1 | 
9 | 4.53 | 4.71 | 4.74 | 4.56 | COc1ccc2c(c1)SC1=NC(c3ccc(C)cc3)=C/C(=C\C#N)N12 | 
10 | 4.53 | 4.65 | 4.60 | 4.38 | COc1ccc2c(c1)SC1=NC(c3ccccc3)=C/C(=C\C#N)N12 | 
11 | 4.34 | 4.66 | 4.73 | 4.41 | CCOc1ccc2c(c1)SC1=NC(c3ccccc3)=C/C(=C\C#N)N12 | 
12 | 4.47 | 4.76 | 4.85 | 4.52 | COc1ccc2c(c1)SC1=NC(c3ccc(Br)cc3)=C/C(=C\C#N)N12 | 
13 | < 4.00 |  | < 4.00 |  | C[C@H]1O[C@H](O[C@H]2[C@H](O)[C@@H](O)[C@@H](O[C@H]3[C@H](O)[C@@H](O)C(O)O[C@@H]3CO)O[C@@H]2CO)[C@H](O)[C@@H](O)[C@@H]1N[C@H]1C=C(CO)[C@@H](O)[C@H](O)[C@H]1O (stereo not given in full) [ACARBOSE] | Not Active

Row | SMILES | pIC50 [2] | pIC50 [3] | pIC50 [4] | pIC50 [1] | IC50 [1]
14 | N#C/C=C1\C=C(c2ccc(Br)cc2)N=C2Sc3ccccc3N21 | 4.64 | 4.82 | 4.55 |  | Not Active

Reference: ChEMBL document CHEMBL2203065, “Synthesis and glycosidase inhibitory activity of novel (2-phenyl-4H-benzopyrimedo[2,1-b]-thiazol-4-yliden)acetonitrile derivatives” (Bioorg Med Chem Lett, 2012)
